The data set is described as follows: Human HepG2 cell viability assay in 384 well format. It is filed as toxicity, cell-based. Also on record: dose 125 nL, time 70.5 hour; concentration not given beside the values. As to conditions: HepG2 cells, read-out: Inhibition.

Results on 41 compounds are retold here after ChEMBL document CHEMBL3507680, “University of Dundee, Gates Library screen for HepG2 cell viability”.

In the case of `CC(NC(=O)c1cnccn1)c1nnc2ccccn12` (stereo unspecified), the cytotoxicity at 70.5 h is -4.81%.

With `Cc1ccc(CN(Cc2cc(=O)n3cccc(C)c3n2)C(C)C)o1`, the cytotoxicity at 70.5 h is -14.3%.

Turning to `Cc1ncc2c(n1)CCN(Cc1ncc(C(C)(C)C)o1)C2`, the cytotoxicity at 70.5 h is -11.4%.

For the compound `CC(=O)N(C)CC(=O)Nc1cc(C(F)(F)F)c[nH]c1=O`, the cytotoxicity at 70.5 h is -12.8%.

Take `CCCC(NC(=O)c1cnccn1)c1nnc2ccccn12` (stereo unspecified): the cytotoxicity at 70.5 h is -11%.

In the case of `CN(CCc1ccccn1)C(=O)Nc1cc(C(F)(F)F)c[nH]c1=O`, the cytotoxicity at 70.5 h turned out to be 8.07%.

Consider `COc1cccc(N2CCN(C(=O)c3ccc(=O)n(C)c3)CC2)c1`, for which the cytotoxicity at 70.5 h was -3.95%.

Take `Cn1cnc2c1CCN(c1ccnc(-c3ccccc3)n1)C2`: the cytotoxicity at 70.5 h is -18.3%.

With `Cc1nc(C(NC(=O)c2cc(C(C)C)[nH]n2)c2ccccc2)n[nH]1` (stereo unspecified), the cytotoxicity at 70.5 h is -11.7%.

With `CC(NC(=O)c1cc(C(C)C)[nH]n1)C(=O)Nc1ccccc1` (stereo unspecified), the cytotoxicity at 70.5 h was -6.22%.

Consider `Cc1ccc2c(c1C)OCC2NCc1cccc(C#N)c1` (stereo unspecified), for which the cytotoxicity at 70.5 h stood at 1.34%.

As for `Cc1cnn(-c2ccc(S(=O)(=O)N(C)CC(F)F)cc2F)c1`, the cytotoxicity at 70.5 h is -8.45%.

For `O=C(CCNc1ccc(Br)cn1)NCc1ccncc1`, the cytotoxicity at 70.5 h was 0.0133%.

Consider `O=C(CCNc1ccc(Cl)cn1)NCc1ccncc1`, for which the cytotoxicity at 70.5 h was -8.13%.

On to `CC(C)c1ncc(C(=O)N(C)c2ccc(Br)cn2)s1`, for which the cytotoxicity at 70.5 h turned out to be 5.45%.

Consider `CCc1c(NCc2cccnc2)cnn1CC(C)C`, for which the cytotoxicity at 70.5 h was -5.5%.

`CCOc1cccc(CNc2cnn(CC(C)C)c2CC)c1`: the cytotoxicity at 70.5 h was -7.62%.

Turning to `CC(C)Oc1ccc(NCc2ccc([S+](C)[O-])cc2)c(F)c1` (stereo unspecified), the cytotoxicity at 70.5 h is 7.01%.

Consider `CN(CC(=O)NCC(CCO)c1ccccc1)C(=O)OC(C)(C)C` (stereo unspecified), for which the cytotoxicity at 70.5 h came out at 27.5%.

Turning to `COc1cccc2c1N(CC(=O)Nc1ccc(Cl)cn1)CCC2`, the cytotoxicity at 70.5 h came to 0.717%.

Turning to `CCn1cc(C(=O)NCC(C)(CC)N2CCOCC2)c2ccccc21` (stereo unspecified), the cytotoxicity at 70.5 h is 5.27%.

For the compound `CCCn1nc(C(=O)NCc2nnc3n2CCC3)ccc1=O`, the cytotoxicity at 70.5 h was 22.5%.

As to `CC(C)(C)NC(=O)c1cnc(C(C)(C)C)s1`, the cytotoxicity at 70.5 h was determined as 3.79%.

In the case of `O=C1NCCCCC1NC(=O)C1(c2cccc(Cl)c2)CC1` (stereo unspecified), the cytotoxicity at 70.5 h is -0.123%.

Turning to `CCn1cc(C(=O)NCC2(C(N)=O)CCOCC2)c2ccccc21`, the cytotoxicity at 70.5 h was found to be 0.306%.

Turning to `CC(Oc1ccc(F)c(F)c1)C(=O)N(CC(N)=O)C1CCCC1` (stereo unspecified), the cytotoxicity at 70.5 h is 27.6%.

On to `O=C1NCCCCC1NC(=O)C1(c2ccccc2)CCOCC1` (stereo unspecified), for which the cytotoxicity at 70.5 h is -1.6%.

Take `C=C(C)CN(CC)C(=O)c1cc(F)ccc1NS(C)(=O)=O`: the cytotoxicity at 70.5 h was -0.0565%.

Consider `C=C(C)CN(CC)C(=O)c1cc(C)ccc1NS(C)(=O)=O`, for which the cytotoxicity at 70.5 h came to 3.16%.

`O=C(NCc1cccc(F)c1)c1cccc(C(=O)N2CCCC2)n1`: the cytotoxicity at 70.5 h amounted to 3.72%.

With `CCN(C)c1ccc(CNC(=O)CCn2cc(C)cn2)cc1F`, the cytotoxicity at 70.5 h was -1.28%.

Regarding `O=C(OCCNc1ncccn1)c1ccc(Cl)s1`, the cytotoxicity at 70.5 h is -3.07%.

As to `CN(Cc1nnc2n1CCC2)C(=O)c1ccc(=O)n(C)n1`, the cytotoxicity at 70.5 h is 4.72%.

Take `O=C(OCc1cccc(F)c1)c1cccc(C(=O)N2CCCC2)n1`: the cytotoxicity at 70.5 h was -1.08%.

As for `COc1ccc(CCNC(=O)C2CCCOC2)c(Cl)c1` (stereo unspecified), the cytotoxicity at 70.5 h amounted to 3.61%.

Regarding `Cc1cc(C)n(C2CCCN(C(=O)c3ccnc(N(C)C)c3)C2)n1` (stereo unspecified), the cytotoxicity at 70.5 h was -0.851%.

As for `CN(CC(=O)N1CCCC(n2ccnc2)C1)c1cnccn1` (stereo unspecified), the cytotoxicity at 70.5 h is -1.54%.

Turning to `Cc1nnc(CN2CCCC2c2ccc3c(c2)OCCCO3)n1C` (stereo unspecified), the cytotoxicity at 70.5 h is -5.99%.

Take `Cn1c(Cl)cnc1CN1CCCC1c1ccc2c(c1)OCCO2` (stereo unspecified): the cytotoxicity at 70.5 h came out at 19.4%.

Consider `O=C1CCCCN1CCCNCc1cnc(C2CCC2)s1`, for which the cytotoxicity at 70.5 h turned out to be 0.195%.

Turning to `CC(CCN1CCCC1=O)NCc1cnc(C2CCC2)s1` (stereo unspecified), the cytotoxicity at 70.5 h is -6.2%.
